Results published in paper PMC3317778, “Development of a Unique Small Molecule Modulator of CXCR4” (PLoS ONE, 2012).

Columns and labels:
[1] = target: T1, CXC chemokine receptor-4 (CXCR4) (Homo sapiens, UniProt P61073)
[2] = target: T1, CXC chemokine receptor-4 (CXCR4); test: competition with biotinylated TN14003 on MDA-MB-231 cells (immunofluorescence); supported by CXCL12-induced cAMP modulation assay in CXCR4-expressing cells (IC50 is for CXCR4/CXCL12 actions); format: cell-based

T1 sequence (P61073 whole entry): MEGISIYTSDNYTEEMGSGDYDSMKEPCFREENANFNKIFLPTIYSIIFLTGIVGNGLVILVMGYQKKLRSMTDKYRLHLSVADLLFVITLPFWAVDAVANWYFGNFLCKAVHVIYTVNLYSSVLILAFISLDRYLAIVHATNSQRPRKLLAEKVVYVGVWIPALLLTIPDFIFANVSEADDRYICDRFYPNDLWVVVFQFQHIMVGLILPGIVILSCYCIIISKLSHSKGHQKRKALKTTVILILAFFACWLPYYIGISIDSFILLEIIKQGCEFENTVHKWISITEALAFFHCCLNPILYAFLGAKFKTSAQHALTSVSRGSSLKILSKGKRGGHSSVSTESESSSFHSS

reference antagonist; block of CXCL12-induced cAMP reduction in U87CD4CXCR4 cell [1] [nM]	IC50 [2] [nM]	Compound
1000	–	c1cc(CN2CCCNCCNCCCNCC2)ccc1CN1CCCNCCNCCCNCC1 [AMD3100]
–	~10	c1cnc(NCc2ccc(CNc3ncccn3)cc2)nc1 [MSX-122, N,N′-(1,4-phenylenebis(methylene))dipyrimidin-2-amine]
